The values that follow come from patent EP2874643B1, “OSTEOPROTEGERIN DERIVED COMPOSITION AND USE THEREOF” (R-Pharm International, LLC, priority 2012, dated 2013).

The target in series [1] is RANKL (receptor activator of NF-kappaB ligand). The series is described as follows: cell-based or functional assay.
The subject of series [2] is MDA-MB-468 human breast cancer cells. The series is described as follows: murine bone lytic model of human breast cancer (intratibial inoculation). Particulars: 0.1 mg/kg, i.v.; for Mean X-Ray Score of Bone Lysis in Inoculated Tibiae: scale 0 (no lysis) to 4, enlarged muscle + 0.5.
The test system is the same in series [3]. To be noted: mouse, in vivo.
The mark [4] stands for this setting: MicroCT scan of inoculated tibia at termination, mean.

Marks after values point to notes of the source that are not given here.

Turning to “hOPG-hIgG1-Fc polypeptide of SEQ ID NO. 1 (Fc fusion)”, in series [1], the concentration that completely blocks RANKL-induced osteoclast differentiation (RAW264.7 cells) stood at 100 ng/mL and the inhibition of RANKL-induced osteoclast differentiation (RAW264.7 cells), EC50 was 50 ng/mL.
With `O=P(O)(O)C(O)(Cn1ccnc1)P(=O)(O)O` [Zometa, Zoledronic Acid], the “Survival (Number Alive/Total)” value in series [2] (3 times weekly for 6 weeks, end of study) is 12/12. Also, in series [2] (6 weeks Post-Inoculation), the “Mean X-Ray Score of Bone Lysis in Inoculated Tibiae” value is on record as 0.2 ^a. Also, the “Mean X-Ray Score of Bone Lysis in Inoculated Tibiae” value in series [2] (8 weeks Post-Inoculation) is 0.5 ^a. In series [2] (setting [4]), the “Structure Model Index (SMI)” value is on record as 1.831 ^a, the “Total Bone Volume (TBV)” value is listed as 6.799 ^a mm^3, the “Trabecular Bone Volume 3 (Tb.BV)” value is reported as 0.614 ^a mm^3 and the “Trabecular Pattern Factor (Tb.Pf)” value is on record as 10.458 ^a mm^--1. In addition, the adverse clinical signs result in series [3] is recorded as “No adverse clinical signs were observed”.
